Values quoted from earlier work as cited in patent US20230210830A1 (ALKEM LABORATORIES LIMITED, priority 2022, published 2023).

Columns and labels:
[1] = tested on: aneurysmal subarachnoid hemorrhage (aSAH); conditions: oral administration; patients after aSAH; Ehrlich et al. 2019
[2] = humans
[3] = Strongest Basic

solubility in organic solvents (ethanol, polyethylene glycol 400, dimethyl sulfoxide (DMSO), and chloroform): soluble | solubility in water (water): insoluble | bioavailability [2]: 12% | t1/2 ([2]; after oral administration): 1.5 h | pKa [3]: 5.41
Compound: COCCOC(=O)C1=C(C)NC(C)=C(C(=O)OC(C)C)C1c1cccc([N+](=O)[O-])c1 (stereo not drawn) [nimodipine, isopropyl 2-methoxyethyl 1,4-dihydro-2,6-dimethyl-4-(m-nitrophenyl)-3,5-pyridinedicarboxylate]
clinical outcome [1]: improved clinical outcome
